# From patent publication US20230181905A1, “Systems, Devices, and Methods for Enhancing the Neuroprotective Effects of Non-Invasive Gamma Stimulation with Pharmacological Agents” (Massachusetts Institute of Technology, priority 2021, published 2023)
# Experiments:
# [1] = test system: LFP oscillations in the visual cortex; experiment: In vivo electrophysiology: LFP power and 40 Hz entrainment in visual cortex; set-up: species or system mouse
# Protocol: Next, it was aimed to understand how these treatments impacted the LFP oscillations and neuronal action potentials. First, in vivo awake animal electrophysiology was performed using high-density linear probes and verified whether 5×FAD mice with reduced microglia by Plx3397 treatment can entrain 40 Hz sensory stimulation. […] At the group level gamma stimulation increased gamma but not theta power as expected based on previous findings (2 W ANOVA, groups x frequency, F (1,6)=32.03, P=0.0013) (FIGS. 15A, 15B).
# Mice were anaesthetized with isoflurane, restrained in a stereotactic apparatus and craniotomies were made exposing the visual cortex (AP: −3.2 & ML: +2.5). […] The reference electrode was targeted to the white matter tract above the hippocampus. Mice were allowed to recover for a period of 4 days.
# Following a 2-3-day habitation period for the recording, recordings commenced with the animal allowed to move freely in their home cages. Data were acquired using Neuralynx SX system (Neuralynx, Bozeman, Mont., USA) and signals were sampled at 32,000 Hz. The position of animals was tracked using red light-emitting diodes affixed to the probes. At the conclusion of the experiment, mice underwent terminal anesthesia and electrode positions were marked by electrolytic lesioning of brain tissue with […] current for 10 s through each electrode individually, to confirm their anatomical location.
# LFPs were first filtered to the Nyquist frequency of the target sampling rate then downsampled to 1000 Hz. Power spectral analyses were performed using the pwelch function in MATLAB using a 500 ms time window with a 50% overlap.
# Mice were anaesthetized with isoflurane, restrained in a stereotactic apparatus and craniotomies were made exposing the visual cortex. Specifically, a 2×2 mm piece of skull was removed using a dental drill, which was above the V1 (stereotaxic 826 coordinates relative to bregma; AP −3.2; ML+2.5); during this entire procedure, the dura was kept intact and moist with saline. Following the skull removal from above both the right V1, two additional drilling holes above the frontal cortex were made and two skull screws were placed. […] The probe was grounded to skull screw above the cerebellum. Petroleum jelly (Vaseline, 100% white petrolatum) was gently applied on the cranial window without touching the probe/electrodes, which protected both the brain and probe/electrode. Next, the probe was further lowered and/or adjusted to reach the target depth. Finally, the probe was cemented on the skull with dental cements, first with a metabond (Parkell, C&B Metabond Quick Adhesive Cement System, #836 SKU:S380) followed by a dental cement from Steolting (#51459). Mice were allowed to recover for a period of 4 days.
# Data analyses: LFPs were first filtered to the Nyquist frequency of the target sampling rate then down-sampled to 1000 Hz. Power spectral analyses were performed using the pwelch function in MATLAB using a 500 ms time window with a 50% overlap.
# Time-frequency representation of LFP: The LFP data were down sampled to 1,000 Hz. For the calculation of the wavelet power spectrum, the continuous wavelet transforms (CWT) was applied to the LFP using complex Morlet wavelets returning amplitudes at 226 intervals between 1-100 Hz. CWT based wavelet power spectrum was shown in FIG. 21A, FIG. 26C, and FIG. 27C. For visualizing 40 Hz entrainment at finer frequency resolution, multitaper spectral analysis using Chronux toolbox was used.
# [2] = test system: GFAP+ astrocytes; experiment: GFAP+ astrocyte immunohistochemistry; type: in vivo, mouse; details: 5×FAD mice; Plx3397 diet 50 days vs control
# Protocol: To study how CSF1R-sensitive microglia impact neural activity in the context of AD, an amyloidosis mouse model, the 5×FAD mice—which is a most commonly used mouse model for AD, was subject to a diet containing CSF1R inhibitor Plx3397 for 50 days (FIG. 21A). The CSF1R inhibitor Plx3397 (600 ppm) was employed, which was previously shown to effectively reduce microglia in vivo. Control mice were age-matched 5×FAD litters that received a regular diet. Electrophysiological recordings were performed using linear probes. Post-recording, the recording site in the visual cortex was verified by histology (FIG. 21), and microglia reduction was evaluated by assessing IBA1+ cell numbers.
# Antibodies: IBA1 (Synaptic Systems, Cat #234 004, dilution-1:500; Wako Chemicals, Cat #019-19741, dilution-1:500), GFAP (Thermo Fisher Scientific, Cat #130300, dilution-1:500), MEF2C (Cell Signaling Technology, Cat #5030T), MAC2 (Cedarlane Labs, Cat #CL8942AP, dilution-1:500), vGAT (Synaptic Systems, Cat #131 013, dilution-1:500), vGLUT (Synaptic Systems, Cat #1135 302, dilution-1:500), NeuN (Synaptic Systems, Cat #266 004, dilution-1:1000), MHC2 (EMD Millipore, Cat #MABF33, dilution-1:500), C1q (Abcam, Cat #ab182451, dilution-1:500), synaptophysin (Sigma, Cat #S5768). […]
compound,measurement,setting,value
"FC(F)(F)c1ccc(CNc2ccc(Cc3c[nH]c4ncc(Cl)cc34)cn2)cn1 [Plx3397, Pexidartinib]",entrainment of 40 Hz sensory stimulation,"[1]; 5×FAD mice with microglia reduced by Plx3397, awake recording",can indeed entrain 40 Hz
same,LFP spectral power,"[1]; 5×FAD mice, Plx3397 diet 50 days vs control",no significant difference
same,time-resolved LFP gamma and theta power,"[1]; 5×FAD mice, chronic Plx3397 administration",elevated power of gamma and theta that occur incongruently
same,gamma response latency,"[1]; 5×FAD mice, untreated vs Plx3397 treated",comparable
same,power of 40 Hz entrainment compared to control 5×FAD mice,"[1]; Plx3397 administered 5×FAD mice, acute 40 Hz stimulation",higher
same,aberrant theta-bursts,[1]; Plx3397 treated 5×FAD mice during acute 40 Hz visual stimulation,reduced
same,GFAP+ astrocytes,[2],no difference
